Biological target: T1, UGT2B7 (Homo sapiens, UniProt P16662)
T1 construct: purchased BD Biosciences (Woburn, MA, USA)
T1 sequence (P16662 24-529): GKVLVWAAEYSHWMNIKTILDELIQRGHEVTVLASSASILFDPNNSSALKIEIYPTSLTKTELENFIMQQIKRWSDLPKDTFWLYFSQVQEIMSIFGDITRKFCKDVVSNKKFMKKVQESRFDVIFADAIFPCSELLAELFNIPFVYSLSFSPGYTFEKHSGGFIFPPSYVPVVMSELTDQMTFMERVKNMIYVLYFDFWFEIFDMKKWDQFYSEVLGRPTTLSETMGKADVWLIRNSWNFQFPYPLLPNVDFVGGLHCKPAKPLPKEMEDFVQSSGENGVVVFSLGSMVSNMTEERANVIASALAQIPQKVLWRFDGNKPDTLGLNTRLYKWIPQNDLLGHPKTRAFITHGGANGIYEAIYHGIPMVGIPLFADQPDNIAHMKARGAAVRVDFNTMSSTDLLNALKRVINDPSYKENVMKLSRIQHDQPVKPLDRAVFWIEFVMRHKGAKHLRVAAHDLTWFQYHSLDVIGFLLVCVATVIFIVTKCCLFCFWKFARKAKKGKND
Assay: Recombinant UGT reaction screening, UGT2B7
Assay type: in vitro ADME
Protocol: UGT reaction screening of tectorigenin and irigenin was conducted using nine commercially available human UGTs (UGT1A1/1A3/1A4/1A6/1A9/2B4/2B7/2B15/2B17). Furthermore, we studied the enzymatic kinetic characteristics of tectorigenin and irigenin using UGT1A1 and UGT1A9. Six concentrations of tectorigenin and irigenin (1, 3, 10, 30, 100, and 300 μM) were incubated in triplicate in order to obtain the enzyme kinetic characteristics of tectorigenin and irigenin glucuronide.

Structure (SMILES): COc1c(O)cc2occ(-c3ccc(O)cc3)c(=O)c2c1O [Tectorigenin, 5,7,4′-trihydroxyl-6-methoxyl isoflavone]
- Activity in glucuronidation of tectorigenin: some activity

Reference: article PMC9268515, “UGT1A1 and UGT1A9 Are Responsible for Phase II Metabolism of Tectorigenin and Irigenin In Vitro” (Molecules, 2022)
